How the values were obtained:
[1] = test system: Human immunodeficiency virus 1; experiment: Inhibition of HIV-cell fusion was determined at 10 uM by using cellular FIGS assay; Inactive; format: functional, organism-based
[2] = Toxicity against HIV cells; format: cell-based; settings: human immunodeficiency virus 1
C8166 [3] = experiment: Inhibition of HIV-1 IIIB infections in C8166 cell lines was determined; 4-8 uM; format: functional, cell-based; settings: Homo sapiens
[4] = Therapeutic index in C8166 cell lines was determined; format: cell-based; settings: human, C8166 cells; read-out: TC50 (the source's name)
[5] = test system: Human immunodeficiency virus 1; experiment: Inhibition of HIV-cell fusion was determined by using cellular FIGS assay; format: functional, organism-based
[6] = test system: Human immunodeficiency virus 1; experiment: Inhibition of HIV-specific CD4-gp120 interaction was determined using recombinant protein; format: functional
C8166 [7] = experiment: Inhibition of HIV-1 IIIB infections in C8166 cell lines was determined; Range is 4-8 uM; format: functional, cell-based; settings: Homo sapiens

SMILES | IC50 [1] | Activity [2] | further results
N=C(N)c1cccc(OCc2ccccc2)c1 | Not Active | 100 µM | –
N=C(N)c1cccc(OCc2ccc(OCc3ccccc3)cc2)c1 | Not Active | 100 µM | –
N=C(N)Nc1cccc(OCc2ccc(Br)cc2)c1.O=C(O)C(F)(F)F | Not Active | 100 µM | –
N=C(N)c1cccc(OCc2ccc(Br)cc2)c1 | Not Active | 100 µM | –
N=C(N)c1cccc(OCc2ccc(Cl)cc2)c1 | Not Active | 100 µM | –
N=C(N)c1cccc(Oc2ccccc2)c1 | Not Active | 100 µM | –
Cl.N=C(N)Nc1cccc(OCc2ccccc2)c1 | – | – | EC50 (C8166 [3]): 8 µM; CC50 [4]: 40 µM; IC50 [5]: 131 µM; Inhibition [6]: 5 mM
N=C(N)c1cccc(OCc2cccc([N+](=O)[O-])c2)c1 | Not Active | 100 µM | –
N=C(N)Nc1cccc(OCc2ccc(Cl)cc2)c1.O=C(O)C(F)(F)F | Not Active | 100 µM | –
Cl.N=C(N)Nc1cccc(Oc2ccccc2)c1 | – | – | EC50 (C8166 [7]): 8 µM; CC50 [4]: 20 µM; IC50 [5]: 167 µM; Inhibition [6]: 5 mM
Cc1ccc(COc2cccc(C(=N)N)c2)cc1 | Not Active | 100 µM | –

Reference: ChEMBL document CHEMBL1146750, “Design, synthesis and evaluation of potential inhibitors of HIV gp120-CD4 interactions” (Bioorg Med Chem Lett, 2004)
